From patent publication US20250275964A1, “METHODS OF INHIBITING LIVER-TYPE GLUTAMINASE, GLS2” (CORNELL UNIVERSITY, priority 2019, published 2025)
Several values for one entry are separate records, joined by “and”; a condition that tells them apart may be missing. Equal values may be shown once.

Columns and labels:
DU4475 cells = assay: 6-day cell proliferation assay, DU4475; format: cell-based, human; settings: DU4475, proliferation over 6 days
Description: (§1) Human breast cancer cell lines MCF7, BT-474, T-47D, MDA-MB-453, MDA-MB-231, Hs 578T, HCC38, SK-BR-3, and DU4475 were purchased from the American Type Culture Collection (ATCC) and no additional cell authentication was performed. The TSE human breast cancer cell line was supplied by Dr. Steven Abcouwer (University of Michigan). All breast cancer cells were cultured at 37° C. under a 5% CO2 atmosphere in RPMI 1640 medium containing 2 mM glutamine (Gibco) and supplemented with 10% fetal bovine serum (FBS) (Gibco). The 293T cell line (ATCC) used for generating lentivirus particles was cultured as above but using DMEM, high glucose (Gibco).
(§2) Culture medium was added to 12-well plates (1 ml/well) and wells were seeded with cells at Day 0 as follows. MCF7, T-47D, BT-474, HCC38 cells: […] cells/well. MDA-MB-453 and MDA-MB-231 cells: 1×10^4 cells/well. TSE and Hs 578T cells: 0.3×10^4 cells/well. After 16 hours, culture medium was replaced with fresh medium supplemented with appropriate concentrations of inhibitors and was subsequently replaced every 48 hours. On Day 6 cells were trypsinized and suspended in an appropriate volume of culture medium, and the total number of cells per well was determined using a hemocytometer or a TC20 Automated Cell Counter (Bio-Rad).

MDA-MB-453 cells = assay: 6-day cell proliferation assay, MDA-MB-453; format: cell-based, human; settings: MDA-MB-453, proliferation over 6 days
Description: as §1, §2

MCF7 cells = assay: 6-day cell proliferation assay, MCF7; format: cell-based, human; settings: MCF7, proliferation over 6 days
Description: as §1, §2

Hs 578T cells = assay: 6-day cell proliferation assay, Hs 578T; format: cell-based, human; settings: proliferation over 6 days
Description: as §1, §2

[1] = target: T1, recombinant full-length human GLS2 (Homo sapiens, UniProt Q9UI32); assay: Real-time recombinant glutaminase activity assay, GLS2; format: biochemical
T1 construct: GLS2 (residues 38 to 602) in E. coli; inferred from pQE80 vector and Ni-NTA/imidazole purification; made in house; host or cells: E. coli BL21(DE3)
T1 sequence (Q9UI32 38-602): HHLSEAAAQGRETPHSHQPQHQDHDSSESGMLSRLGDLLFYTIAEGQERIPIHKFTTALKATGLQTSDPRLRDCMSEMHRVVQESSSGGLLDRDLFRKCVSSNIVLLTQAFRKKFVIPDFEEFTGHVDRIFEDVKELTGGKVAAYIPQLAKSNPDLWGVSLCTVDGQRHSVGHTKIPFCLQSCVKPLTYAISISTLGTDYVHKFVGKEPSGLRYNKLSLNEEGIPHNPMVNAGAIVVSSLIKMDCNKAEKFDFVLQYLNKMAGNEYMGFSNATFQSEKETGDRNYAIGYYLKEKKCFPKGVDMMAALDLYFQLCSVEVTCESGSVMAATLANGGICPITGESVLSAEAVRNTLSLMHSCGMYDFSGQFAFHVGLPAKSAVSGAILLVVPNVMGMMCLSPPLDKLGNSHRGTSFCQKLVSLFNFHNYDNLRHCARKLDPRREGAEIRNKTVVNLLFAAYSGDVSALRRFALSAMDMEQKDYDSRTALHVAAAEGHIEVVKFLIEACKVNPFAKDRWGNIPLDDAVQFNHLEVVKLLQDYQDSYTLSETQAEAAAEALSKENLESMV
Description: Real-time monitoring of glutaminase activity through NADH production was performed on a Cary Eclipse fluorescence spectrometer. The excitation and emission wavelengths were set at 340 nm and 460 nm, respectively. To a 1 ml cuvette, 900 μl of assay buffer was added, followed by 10 μl of GDH, 40 μl of 50 mM NAD and 20 μl of either DMSO or various dilutions of 968. Then, 100 μl of either 100 nM GAC or 500 nM GLS2 was added to this mixture and the fluorescence emission was monitored in real time. After 30 s, 200 μl of a mixture of glutamine and K2HPO4 was added such that the final concentrations of K2HPO4 and glutamine were 100 mM and 20 mM, respectively. The initial velocity of glutamine hydrolysis was obtained from the slopes of the linear portion of the kinetic curve.
Recombinant GAC and GLS2 were expressed in E. coli as described in Huang et al., “Characterization of the Interactions of Potent Allosteric Inhibitors with Glutaminase C, a Key Enzyme in Cancer Cell Glutamine Metabolism,” J. Biol. Chem. 293:3535-3545 (2018), which is hereby incorporated by reference in its entirety. Briefly, E. coli strain BL21(DE3) (Thermo Fisher Scientific) were transformed with vector pQE80-GAC-72-598 or with pQE80-GLS2-38-602 to express the processed forms of GAC and GLS2, respectively. For both constructs, expression was induced with 0.3 mM IPTG for 20 hours at 18° C., and cells were then harvested by centrifugation and lysed by sonication in binding buffer (500 mM NaCl, 50 mM Tris-HCl pH 8.5, 10 mM imidazole, 5 mM β-mercaptoethanol, 1 mM benzamidine chloride). The lysate was centrifuged, and the supernatant applied to a Ni-NTA column which was then washed with 100 column volumes of binding buffer followed by 10 volumes of wash buffer (500 mM NaCl, 50 mM Tris-HCl pH 8.5, 40 mM imidazole, 5 mM β-mercaptoethanol, 1 mM benzamidine chloride). Protein was eluted with 5 column volumes of elution buffer (500 mM NaCl, 300 mM imidazole-HCl pH 7.5, 5 mM β-mercaptoethanol, 1 mM benzamidine chloride). The eluate was centrifugally concentrated and then further purified by FPLC using a HiLoad 16/600 Superdex 200 column (GE Healthcare) with 150 mM NaCl, 5 mM Tris-HCl pH 7.5.

T-47D cells = assay: 6-day cell proliferation assay, T-47D; format: cell-based, human; settings: proliferation over 6 days
Description: as §1, §2

Row | SMILES | EC50 (DU4475 cells) | EC50 (MDA-MB-453 cells) | EC50 (MCF7 cells) | EC50 (Hs 578T cells) | inhibition of recombinant GLS2 activity ([1]; different concentrations) | EC50 (T-47D cells) | inhibition of recombinant GLS2 activity ([1]; at 50 μM, NADH fluorescence in real time) | selectivity for GLS2 over GLS ([1]; purified recombinant glutaminases)
1 | O=C(Cc1ccccc1)Nc1nnc(CCSCCc2nnc(NC(=O)Cc3ccccc3)s2)s1 [BPTES] | > 20 µM | ~20 µM | ~20 µM | 3.7 µM | resistance | ~20 µM | – | –
2 | CN(C)c1ccc(C2Nc3ccc4ccccc4c3C3=C2C(=O)CC(C)(C)C3)cc1Br (centres unmarked) [Compound 968] | 4 µM | 3 µM | 4 µM | 4 µM | inhibited | 4 µM | completely blocks activity | > 3 fold and ~3 fold
